Patent publication US20180000836A1, “Topical Treatment for Psoriasis” (priority 2016, published 2018)

Experiment: Topical application of the preparation to affected skin areas of plaque psoriasis patients
Format: in vivo, human
Conditions: twice daily, six to twelve weeks
Excerpt: The topical application using the preparation herein for treatment of psoriasis according to the present invention, to accelerate healing, merely requires a once to twice daily application of the formed preparation to the affected areas for a period of six to twelve weeks. Generally, no special precautions are required other than the general precautions which accompany the topical application of topical steroids to the skin. Evaluation of the effectiveness of the preparation herein, is by simple examination of the patient and reduction of rash and other skin symptoms, and by changes in the amounts of itching present.
Topical application of the preparation for plaque psoriasis treatment herein to affected skin areas, on a twice, daily basis, generally produces beneficial effects on plaque psoriasis when applied over a period of time between six to twelve weeks. […] The clearing noted lasting for a prolonged period after treatment. […]
In a regimen for treatment of plaque psoriasis patients, the preparation herein is mixed and provided to the patient for topical application twice daily for a period of six to twelve weeks, depending on the individual patient results which may be evaluated after each four to six week period by an examination of the areas of body of the patient, and the reduction or total clearing of rash and other skin symptoms in those area. […]

SMILES: CCC(=O)O[C@]1(C(=O)CCl)[C@@H](C)C[C@H]2[C@@H]3CCC4=CC(=O)C=C[C@]4(C)[C@@]3(F)[C@@H](O)C[C@@]21C [clobetasol propionate]
- outcome of topical treatment of plaque psoriasis (clearing of affected areas), in words: reduction or elimination of the plaque psoriasis
